Columns and labels:
[1] = biological target: T1, enzyme in 2-e-2 cell lysate (Bacillus thuringiensis, UniProt E2GIN1); test: Substrate reaction characteristics of enzyme in 2-e-2 cell lysate; assay type: biochemical; details: 5 mM amino acid, pH 7, 30° C., 1 hour, TLC or amino acid analysis
T1 construct: the collected and washed 2-e-2 cells were disrupted using a mortar; endogenous in cells; host or cells: Bacillus thuringiensis 2-e-2 cell lysate
Experimental: (§1) The cells were cultured in the AMKP medium until OD660 of 3.2 was achieved, then the collected and washed 2-e-2 cells were disrupted using a mortar, and suspended in a buffer (50 mM HEPES (pH 7.0), 10% of glycerol, Complete Mini (Roche)) until a suspension (lysate) is obtained having a protein concentration of about 10 mg/ml including centrifugation precipitates. The centrifugation precipitates were finally suspended in physiological saline of the same volume as the cell lysate. These were each mixed with an equal volume of a 2× dioxygenase reaction mixture (10 mM Ile, […], 10 mM 2-oxoglutaric acid, 10 mM ascorbic acid, 100 mM HEPES (pH 7.0)), and the reaction proceeded at 30° C. for 1 hour. Similarly, resting cells used for the preparation of the cell lysate were washed, and suspended in physiological saline at a concentration 10 times that in the culture broth, the suspension was mixed with an equal volume of the 2× dioxygenase reaction mixture, and the reaction proceeded.
By using a cell lysate prepared from 2-e-2 cells at OD660 of 7 according to the method described in <5>, the reaction characteristics for various amino acids were evaluated. The cell lysate and a substrate solution were mixed, then the reaction proceeded at 30° C. for 1 hour, and the production of new substances was evaluated by TLC or amino acid analysis. The substrate reaction mixture contained 5 mM amino acid, 5 mM Fe^2+, 5 mM 2-oxoglutaric acid, 5 mM ascorbic acid, and 100 mM HEPES (pH 7). In addition to L-isoleucine, the amino acids L-leucine, L-valine, L-glutamic acid, and L-lysine were each individually evaluated. The 4-hydroxyisoleucine which was produced was analyzed by the method described in Example 1. Production of amino acids other than L-isoleucine was not observed.

L-Ile hydroxylase [2] = biological target: T2, L-Ile hydroxylase (Bacillus thuringiensis, UniProt E2GIN1); test: Substrate reaction characteristics of purified L-Ile hydroxylase; assay type: biochemical; details: 5 mM amino acid; purified enzyme; pH 6, 30° C., 1 hour; HPLC
T2 construct: made in house; host or cells: Bacillus thuringiensis 2-e-2 (natural producer; enzyme purified by chromatography, not recombinant)
Experimental: By using L-Ile hydroxylase prepared as described in Example 2, the reaction characteristics for various amino acids were evaluated. The enzyme solution and the reaction mixture were mixed, and then the reaction proceeded at 30° C. for 1 hour, and the production of new substances was evaluated by HPLC analysis. The enzymatic reaction solution contained 5 mM amino acid, 5 mM Fe^2+, 5 mM 2-oxoglutaric acid, 5 mM ascorbic acid, and 100 mM HEPES (pH 6). In addition to L-isoleucine, the amino acids D-isoleucine, L-leucine, L-valine, L-glutamic acid, and L-lysine were also individually evaluated. The produced 4-hydroxyisoleucine was analyzed as in Example 1. Like when using a cell lysate, production of a new substance could not be confirmed for amino acids other than L-isoleucine.

[3] = biological target: T1, enzyme in 2-e-2 cell lysate; test: Effect of inhibitors on 4-hydroxyisoleucine production in the 2-e-2 cell lysate; assay type: biochemical; details: 10 mM inhibitor, pH 6, 30° C., 1 hour
Experimental: as §1
By using a cell lysate prepared from 2-e-2 cells at OD660 of 7 according to the method described in <5>, the effects of inhibitors on the 4-hydroxyisoleucine production were examined. […] The dioxygenase reaction mixture contained 5 mM Ile, 5 mM Fe^2+, 5 mM 2-oxoglutaric acid, 5 mM ascorbic acid, and 100 mM HEPES (pH 6), the reaction temperature was 30° C., and the reaction time was 1 hour. The amount of 4-hydroxyisoleucine which was produced when 10 mM of each inhibitor (EDTA, Cu^2+, Zn^2+) was added to the reaction system was measured. 4-Hydroxyisoleucine was analyzed by the method described in <2>. The isoleucine hydroxylation activity was inhibited by the inhibitors.

L-Ile hydroxylase [4] = biological target: T2, L-Ile hydroxylase; test: Effects of inhibitors on 4-hydroxyisoleucine production by purified L-Ile hydroxylase; assay type: biochemical; details: 10 mM inhibitor; 4-hydroxyisoleucine production with no inhibitor = 100%; pH 6, 30° C., 1 hour
Experimental: Each fraction was reacted using an Ile hydroxylation activity reaction mixture (100 mM HEPES (pH 6.0), 5 mM L-Ile, 5 mM Fe^2+, 5 mM 2-oxoglutaric acid, 5 mM ascorbic acid at final concentrations) at 30° C. for 30 minutes. The enzyme was inactivated at 100° C., and then the amount of 4-hydroxyisoleucine was quantified by the aforementioned AMKP and HIL separation and measurement method. The 4-hydroxyisoleucine referred to in the subsequent analysis indicates a substance that is substantially composed of the isomer having the same retention time as that of the naturally occurring 4-hydroxyisoleucine. The enzyme activity that produces 1 nmol of HIL per minute was defined as 1 U.
By using L-Ile hydroxylase prepared as described in Example 2, the effect of inhibitors on the production of 4-hydroxyisoleucine were examined. The enzymatic reaction solution contained 5 mM Ile, 5 mM Fe^2+, 5 mM 2-oxoglutaric acid, 5 mM ascorbic acid, and 100 mM HEPES (pH 6), the reaction temperature was 30° C., and the reaction time was 1 hour. The amount of 4-hydroxyisoleucine produced when 10 mM of each inhibitor (EDTA, Cu^2+, Zn^2+) was added to the reaction system was measured. These values are relative to the 4-hydroxyisoleucine production observed with no inhibitor, which was set as 100%. The isoleucine hydroxylation activity was lost in the presence of the inhibitors.

strain 2-e-2 = test: Effect of addition of cofactors on AMKP production in culture of strain 2-e-2; assay type: cell-based, Bacillus thuringiensis; details: culture supernatant; 30° C., 22 hours; control 1.34
Experimental: The possibility of molecular oxygen uptake by hydroxylation was considered as a possible mechanism for the production of AMKP. Accordingly, the production of AMKP was analyzed when NAD(P)H, or Fe^2+, 2-oxoglutaric acid and ascorbic acid, were added during the culture of the 2-e-2 strain. NAD(P)H is a cofactor of monooxygenases and Fe^2+, 2-oxoglutaric acid and ascorbic acid are cofactors of dioxygenases.
The culture medium used in the previous screening was used as a control, and the production of AMKP was compared among cultures containing the cofactors as shown in Table 3. The culture temperature was 30° C., and the culture time was 22 hours. The concentration of AMKP in the culture supernatants was measured.

IDO(Lys,23) = IDO(Lys,23) (Bacillus thuringiensis, UniProt E2GIN1)
L-Ile hydroxylase [5] = biological target: T2, L-Ile hydroxylase; test: Effects of addition of cofactors on 4-hydroxyisoleucine production with purified enzyme; assay type: biochemical; details: purified enzyme + 5 mM L-Ile + 5 mM cofactor; 100 mM HEPES pH 6
Excerpt: The effects of cofactors on the production of 4-hydroxyisoleucine by hydroxylation of Ile were examined by using the purified enzyme.

[6] = biological target: T1, enzyme in 2-e-2 cell lysate; test: Effects of enzyme cofactors on 4-hydroxyisoleucine production with 2-e-2 cell lysate; assay type: biochemical; details: Lysate + 5 mM Ile + 5 mM cofactor; 50 mM HEPES pH 7
Experimental: as §1
By using a cell lysate of the 2-e-2 cells in the logarithmic growth phase, the effects of cofactors on the 4-hydroxyisoleucine production reaction by hydroxylation of Ile were examined. A 50 mM HEPES (pH 7) reaction mixture was used containing final concentrations of 5 mM Ile and 5 mM of one of various cofactors with a cell lysate of the 2-e-2 cells (lysate) in the logarithmic growth phase prepared by the method described in <5> above, and the amount of 4-hydroxyisoleucine produced was measured.

[7] = system: dioxygenase activity in fenugreek extract; details: cited from earlier work
[8] = Production of HIL from Ile with crude enzyme solution of E. coli expressing ido genes; assay type: biochemical, Escherichia coli; details: 28° C., 3 hours, control (pET21b) 11
Experimental: The plasmid expressing the ido gene from B. cereus ATCC 14579, B. thuringiensis AKU238, or B. weihenstephanensis KBAB4, which was constructed in Example 8, was introduced into E. coli Rosetta2 (DE3), and the transformants were cultivated with shaking in LB medium supplemented with 50 μg/ml ampicilin (preculture). By seeding the preculture broth in 50 ml LB medium at 1%, the main culture was carried out at 37° C. 2 hours after the start of the cultivation, IPTG was added to a final concentration of 1 mM, and the cultivation was carried out for an additional 3 hours. After completion of the cultivation, the cells were harvested, washed, suspended in 1 ml of 20 mM Tris-HCl (pH 7.6), and disrupted with a sonicator (INSONATOR 201M, KUBOTA). The lysate was centrifuged at 15000 rpm for 10 minutes, and the supernatant was used as a crude enzyme solution.
By using the crude enzyme solution prepared in (1), the conversion of Ile to HIL was measured. The reaction mixture is described below. The reaction mixture was reacted with shaking (300 rpm) at 28° C. for 3 hours, and then the amount of HIL produced was determined by HPLC.

T2 sequence (E2GIN1 2-240): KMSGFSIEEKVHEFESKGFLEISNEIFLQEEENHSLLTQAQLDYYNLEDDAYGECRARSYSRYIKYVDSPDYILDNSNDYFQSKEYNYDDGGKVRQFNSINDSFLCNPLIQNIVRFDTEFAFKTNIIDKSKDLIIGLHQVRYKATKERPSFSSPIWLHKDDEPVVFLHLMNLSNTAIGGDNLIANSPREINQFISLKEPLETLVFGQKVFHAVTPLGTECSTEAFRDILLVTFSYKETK
T1 sequence (E2GIN1 2-240): as above
Sequence of IDO(Lys,23) (E2GIN1 2-240): as above

For N[C@@H](CCC(=O)O)C(=O)O [L-Glutamic acid, L-glutamic acid], the “Product (reactivity for various amino acids)” value [1] was “None” and the “Product (reactivity for each amino acid)” value (L-Ile hydroxylase [2]) was “None”.

With [Cu+2] [Cu^2+] the “isoleucine hydroxylation activity in presence of inhibitor” value [3] was “inhibited” and the “Relative activity (%)” value (L-Ile hydroxylase [4]) was 0%.

With NCCCC[C@H](N)C(=O)O [L-Lysine, L-lysine] the “Product (reactivity for various amino acids)” value [1] was “None” and the “Product (reactivity for each amino acid)” value (L-Ile hydroxylase [2]) was “None”.

For CC(C)C[C@H](N)C(=O)O [L-Leucine, L-leucine], the “Product (reactivity for various amino acids)” value [1] was “None” and the “Product (reactivity for each amino acid)” value (L-Ile hydroxylase [2]) was “None”.

For NAD(P)H, the “AMKP concentration” value (strain 2-e-2) was 1.58 mM.

For O=C(O)CN(CCN(CC(=O)O)CC(=O)O)CC(=O)O [EDTA], the “activity of IDO(Lys,23) in the presence of the substance” value (IDO(Lys,23)) was “completely blocked”, the “isoleucine hydroxylation activity in presence of inhibitor” value [3] was “inhibited” and the “Relative activity (%)” value (L-Ile hydroxylase [4]) was 0%.

With CC[C@@H](C)[C@@H](N)C(=O)O [D-Isoleucine, D-isoleucine] the “Product (reactivity for each amino acid)” value (L-Ile hydroxylase [2]) was “None”.

With [Fe+2] [Fe^2+] the “HIL” value (L-Ile hydroxylase [5]) was 0.00 mM, the “HIL production” value [6] was 0.00 mM and the “AMKP concentration” value (strain 2-e-2) was 2.53 mM.

With [Zn+2] [Zn^2+] the “isoleucine hydroxylation activity in presence of inhibitor” value [3] was “inhibited” and the “Relative activity (%)” value (L-Ile hydroxylase [4]) was 0%.

For O=C(O)CCC(=O)C(=O)O [α-KG, 2-oxoglutaric acid], the “HIL” value (L-Ile hydroxylase [5]) was 0.00 mM and the “HIL production” value [6] was 0.00 mM.

For CC[C@H](C)[C@H](N)C(=O)O [L-Isoleucine, L-isoleucine], the “Product (reactivity for various amino acids)” value [1] is given as “Produced (HIL)”, the “Product (reactivity for each amino acid)” value (L-Ile hydroxylase [2]) is given as “Produced (HIL)” and the “isoleucine concentration that inhibits the activity of the enzyme” value [7] is given as ≥ 20 mM.

With CC(C)[C@H](N)C(=O)O [L-Valine, L-valine] the “Product (reactivity for various amino acids)” value [1] was “None” and the “Product (reactivity for each amino acid)” value (L-Ile hydroxylase [2]) was “None”.

For O=C1O[C@H]([C@@H](O)CO)C(O)=C1O [Ascorbate, ascorbic acid], the “HIL” value (L-Ile hydroxylase [5]) was 0.00 mM and the “HIL production” value [6] was 0.00 mM.

B1: B. thuringiensis AKU238: crude enzyme solution of E. coli expressing ido gene from B. thuringiensis AKU238, SEQ ID NO: 17 (protein, listed as Bacillus thuringiensis)
chain: MEVFIMTFVLSKMSGFSIEEKVHEFESKGFLEISNEIFLQEEENHRLLTQAQLDYYNLEDDAYGECRARSYSRYIKYVDSPDYILDNSNDYFQSKEYNYDDGGKVRQFNSINDSFLCNPLIQNIVRFDTEFAFKTNIIDTSKDLIIGLHQVRYKATKERPSFSSPIWLHKDDEPVVFLHLMNLSNTAIGGDNLIANSPREINQFISLKEPLETLVFGQKVFHAVTPLGTECSTEAFRDILLVTFSYKETK
For B1, the “Amount of HIL produced from Ile, HIL” value [8] was 2016 µM.

B2: B. weihenstephanensis KBAB4: crude enzyme solution of E. coli expressing ido gene from B. weihenstephanensis KBAB4, SEQ ID NO: 21 (protein, listed as Bacillus weihenstephanensis)
chain: MLTTVSNKTSSFDVEQKVHEFESNGYIQIFNDIFLQDQEDQALLTKAQLDYYSLQNDAYGECRARAYSRYIKYAGSSDYVLDTDNGYFQSEEYNYDDGGKIRNFNSITDEFLHNSLIEKIVRFDSEFASNTNILDTSKDLVIGLHQVRYKATRENPSFSSPIWLHKDDEPIVFLHLMNLSNTALGGDNLIANSPREINKLISLKDPLETLVFGQKVFHAVTPLGTECNTEALRDILLVTFSYKEPK
In the case of B2, the “Amount of HIL produced from Ile, HIL” value [8] is reported as 3116 µM.

B3: B. thuringiensis israelensis ATCC35646: crude enzyme solution with IDO from B. thuringiensis israelensis ATCC 35646, SEQ ID NO: 8 (protein, listed as Bacillus thuringiensis)
chain: KMSGFSIEEKVHEFESKGFLEISNEIFLQEEENHSLLTQAQLDYYNLEDDAYGECRARSYSRYIKYVDSPDYILDNSNDYFQSKEYNYDDGGKVRQFNSINDSFLCNPLIQNIVHFDTEFAFKTNIIDKSKDLIIGLHQVRYKATKERPSFSSPIWLHKDDEPVVFLHLMNLSNTAIGGDNLIANSPREINQFISLKEPLETLVFGQKVFHAVTPLGTECSTEAFRDILLVTFSYKETK
For B3, the “Amount of HIL produced from Ile, HIL” value [8] was 2150 µM.
